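Compound exposure: 48 hours, 5 concentrations, 96-well plates. GI50 = concentration required for 50% inhibition of growth.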 The source made the active and inactive calls. Rule as the data show it: active = GI50 up to about 1.1 µM and inactive = higher.
Legend:
Assay in all cases: NCI anticancer screen, dose series, 48 h
786-0 = system: 786-0
A498 = system: A498
A549 = system: A549
ACHN = system: ACHN
CCRF-CEM = system: CCRF-CEM
COLO 205 = system: COLO 205
DU-145 = system: DU-145
EKVX = system: EKVX
HCT-116 = system: HCT-116
HCT-15 = system: HCT-15
HOP-62 = system: HOP-62
HOP-92 = system: HOP-92
HT-29 = system: HT-29
Hs-578T = system: Hs-578T
IGROV-1 = system: IGROV-1
K562 = system: K562
KM12 = system: KM12
LOX IMVI = system: LOX IMVI
M14 = system: M14
MCF7 = system: MCF7
MDA-MB-231 = system: MDA-MB-231
MDA-MB-435 = system: MDA-MB-435
MDA-N = system: MDA-N
MOLT-4 = system: MOLT-4
Malme-3M = system: Malme-3M
NCI-H226 = system: NCI-H226
NCI-H23 = system: NCI-H23
NCI-H522 = system: NCI-H522
NCI/ADR-RES = system: NCI/ADR-RES
OVCAR-3 = system: OVCAR-3
OVCAR-5 = system: OVCAR-5
OVCAR-8 = system: OVCAR-8
PC-3 = system: PC-3
RPMI-8226 = system: RPMI-8226
SF-268 = system: SF-268
SF-295 = system: SF-295
SK-MEL-28 = system: SK-MEL-28
SK-MEL-2 = system: SK-MEL-2
SK-MEL-5 = system: SK-MEL-5
SK-OV-3 = system: SK-OV-3
SN12C = system: SN12C
SNB-19 = system: SNB-19
SNB-75 = system: SNB-75
SW-620 = system: SW-620
TK-10 = system: TK-10
U-251 = system: U-251
UACC-62 = system: UACC-62
UO-31 = system: UO-31
BT-549 = system: BT-549
HCC 2998 = system: HCC 2998
HL-60 = system: HL-60
NCI-H460 = system: NCI-H460
OVCAR-4 = system: OVCAR-4
SF-539 = system: SF-539
SR = system: SR
UACC-257 = system: UACC-257
CAKI-1 = system: CAKI-1
RXF 393 = system: RXF 393

`COC(=O)/C=C1\C(CO[Si](C)(C)C(C)(C)C)OC(n2cc(C)c(=O)n(C)c2=O)C1O[Si](C)(C)C(C)(C)C` (centres undefined) was tested, and the GI50 (786-0) was > 100 µM (inactive), the GI50 (A498) was > 100 µM (inactive) and the GI50 (A549) was > 100 µM (inactive). For the same compound, the GI50 (ACHN) was > 100 µM (inactive), the GI50 (CCRF-CEM) was > 100 µM (inactive) and the GI50 (COLO 205) was > 100 µM (inactive). For the same compound, the GI50 (DU-145) was > 100 µM (inactive), the GI50 (EKVX) was > 100 µM (inactive) and the GI50 (HCT-116) was 71.4 µM (inactive). For the same compound, the GI50 (HCT-15) was greater than 100 µM, the GI50 (HOP-62) was > 100 µM (inactive) and the GI50 (HOP-92) was > 100 µM (inactive). For the same compound, the GI50 (HT-29) was > 100 µM (inactive), the GI50 (Hs-578T) was > 100 µM (inactive) and the GI50 (IGROV-1) was > 100 µM (inactive). The GI50 (K562) was > 100 µM (inactive), the GI50 (KM12) was > 100 µM (inactive) and the GI50 (LOX IMVI) was 89.5 µM (inactive). For the same compound, the GI50 (M14) was > 100 µM (inactive), the GI50 (MCF7) was 27 µM (inactive) and the GI50 (MDA-MB-231) was > 100 µM (inactive). For the same compound, the GI50 (MDA-MB-435) was 62.4 µM (inactive), the GI50 (MDA-N) was > 100 µM (inactive) and the GI50 (MOLT-4) was > 100 µM (inactive). The GI50 (Malme-3M) was > 100 µM (inactive), the GI50 (NCI-H226) was > 100 µM (inactive) and the GI50 (NCI-H23) was > 100 µM (inactive). The GI50 (NCI-H522) was 78 µM (inactive), the GI50 (NCI/ADR-RES) was > 100 µM (inactive) and the GI50 (OVCAR-3) was > 100 µM (inactive). For the same compound, the GI50 (OVCAR-5) was > 100 µM (inactive), the GI50 (OVCAR-8) was > 100 µM (inactive) and the GI50 (PC-3) was 48.5 µM (inactive). The GI50 (RPMI-8226) was 78 µM (inactive), the GI50 (SF-268) was > 100 µM (inactive) and the GI50 (SF-295) was > 100 µM (inactive). The GI50 (SK-MEL-28) was > 100 µM (inactive), the GI50 (SK-MEL-2) was > 100 µM (inactive) and the GI50 (SK-MEL-5) was 69.7 µM (inactive). For the same compound, the GI50 (SK-OV-3) was > 100 µM (inactive), the GI50 (SN12C) was > 100 µM (inactive) and the GI50 (SNB-19) was > 100 µM (inactive). The GI50 (SNB-75) was > 100 µM (inactive), the GI50 (SW-620) was > 100 µM (inactive) and the GI50 (TK-10) was > 100 µM (inactive). For the same compound, the GI50 (U-251) was 81.7 µM (inactive), the GI50 (UACC-62) was > 100 µM (inactive) and the GI50 (UO-31) was > 100 µM (inactive).
`Nc1nc(NNc2cccc(F)c2)cc(=O)[nH]1` was tested, and the GI50 (786-0) was 18.8 µM (inactive), the GI50 (A498) was > 100 µM (inactive) and the GI50 (A549) was 29.6 µM (inactive). The GI50 (ACHN) was 43.6 µM (inactive), the GI50 (BT-549) was 77.1 µM (inactive) and the GI50 (CCRF-CEM) was 43.5 µM (inactive). The GI50 (COLO 205) was 23.3 µM (inactive), the GI50 (DU-145) was 81.3 µM (inactive) and the GI50 (EKVX) was > 100 µM (inactive). For the same compound, the GI50 (HCC 2998) was 35.5 µM (inactive), the GI50 (HCT-116) was 24 µM (inactive) and the GI50 (HCT-15) was 42.5 µM. For the same compound, the GI50 (HL-60) was 23.1 µM (inactive), the GI50 (HOP-62) was 25 µM (inactive) and the GI50 (HT-29) was 22.5 µM (inactive). The GI50 (Hs-578T) was 36.8 µM (inactive), the GI50 (IGROV-1) was 61.9 µM (inactive) and the GI50 (K562) was 36.1 µM (inactive). For the same compound, the GI50 (KM12) was 22.4 µM (inactive), the GI50 (LOX IMVI) was 21.1 µM (inactive) and the GI50 (M14) was 56.5 µM (inactive). For the same compound, the GI50 (MCF7) was 29.5 µM (inactive), the GI50 (MDA-MB-231) was 42.2 µM (inactive) and the GI50 (MDA-MB-435) was 25.9 µM (inactive). For the same compound, the GI50 (MOLT-4) was 27.7 µM (inactive), the GI50 (Malme-3M) was 74.8 µM (inactive) and the GI50 (NCI-H226) was > 100 µM (inactive). The GI50 (NCI-H23) was 48.3 µM (inactive), the GI50 (NCI-H460) was 44 µM (inactive) and the GI50 (NCI/ADR-RES) was 44.9 µM (inactive). For the same compound, the GI50 (OVCAR-3) was 24.9 µM (inactive), the GI50 (OVCAR-4) was 51.6 µM (inactive) and the GI50 (OVCAR-5) was > 100 µM (inactive). For the same compound, the GI50 (OVCAR-8) was 42.4 µM (inactive), the GI50 (PC-3) was 25.2 µM (inactive) and the GI50 (RPMI-8226) was 32.2 µM (inactive). The GI50 (SF-295) was 33.3 µM (inactive), the GI50 (SF-539) was > 100 µM (inactive) and the GI50 (SK-MEL-28) was > 100 µM (inactive). The GI50 (SK-MEL-5) was 42.7 µM (inactive), the GI50 (SN12C) was 65.8 µM (inactive) and the GI50 (SNB-19) was 65.2 µM (inactive). For the same compound, the GI50 (SR) was 27 µM (inactive), the GI50 (SW-620) was 31.2 µM (inactive) and the GI50 (TK-10) was > 100 µM (inactive). For the same compound, the GI50 (U-251) was 20.7 µM (inactive), the GI50 (UACC-257) was > 100 µM (inactive) and the GI50 (UO-31) was 89.1 µM (inactive).
For `COc1ccc(CNc2nc3cc(N)cc(N)c3nc2-c2ccccc2)cc1`, the GI50 (RPMI-8226) was 4.13 µM (inactive).
With `CCCCCCC1OC23OC1CCC2C(O)CCC3O` (centres undefined) the GI50 (786-0) was > 100 µM (inactive), the GI50 (A498) was > 100 µM (inactive) and the GI50 (ACHN) was 97.7 µM (inactive). The GI50 (BT-549) was > 100 µM (inactive), the GI50 (CAKI-1) was > 100 µM (inactive) and the GI50 (COLO 205) was > 100 µM (inactive). The GI50 (DU-145) was > 100 µM (inactive), the GI50 (EKVX) was > 100 µM (inactive) and the GI50 (HCC 2998) was > 100 µM (inactive). The GI50 (HCT-116) was > 100 µM (inactive), the GI50 (HCT-15) was greater than 100 µM and the GI50 (HL-60) was > 100 µM (inactive). The GI50 (HOP-62) was > 100 µM (inactive), the GI50 (HT-29) was > 100 µM (inactive) and the GI50 (Hs-578T) was > 100 µM (inactive). The GI50 (IGROV-1) was > 100 µM (inactive), the GI50 (K562) was > 100 µM (inactive) and the GI50 (KM12) was > 100 µM (inactive). For the same compound, the GI50 (LOX IMVI) was > 100 µM (inactive), the GI50 (MCF7) was > 100 µM (inactive) and the GI50 (MDA-MB-231) was > 100 µM (inactive). The GI50 (MDA-MB-435) was > 100 µM (inactive), the GI50 (MOLT-4) was > 100 µM (inactive) and the GI50 (Malme-3M) was > 100 µM (inactive). The GI50 (NCI-H226) was > 100 µM (inactive), the GI50 (NCI-H23) was > 100 µM (inactive) and the GI50 (NCI-H460) was > 100 µM (inactive). The GI50 (NCI-H522) was > 100 µM (inactive), the GI50 (NCI/ADR-RES) was > 100 µM (inactive) and the GI50 (OVCAR-3) was > 100 µM (inactive). For the same compound, the GI50 (OVCAR-4) was > 100 µM (inactive), the GI50 (OVCAR-5) was > 100 µM (inactive) and the GI50 (OVCAR-8) was > 100 µM (inactive). The GI50 (PC-3) was > 100 µM (inactive), the GI50 (RPMI-8226) was > 100 µM (inactive) and the GI50 (RXF 393) was > 100 µM (inactive). The GI50 (SF-268) was > 100 µM (inactive), the GI50 (SF-295) was > 100 µM (inactive) and the GI50 (SF-539) was > 100 µM (inactive). For the same compound, the GI50 (SK-MEL-28) was > 100 µM (inactive), the GI50 (SK-MEL-2) was > 100 µM (inactive) and the GI50 (SK-MEL-5) was > 100 µM (inactive). For the same compound, the GI50 (SN12C) was > 100 µM (inactive), the GI50 (SNB-19) was > 100 µM (inactive) and the GI50 (SNB-75) was > 100 µM (inactive). The GI50 (SR) was > 100 µM (inactive), the GI50 (SW-620) was > 100 µM (inactive) and the GI50 (TK-10) was > 100 µM (inactive). For the same compound, the GI50 (U-251) was > 100 µM (inactive), the GI50 (UACC-257) was > 100 µM (inactive) and the GI50 (UACC-62) was > 100 µM (inactive). The GI50 (UO-31) was > 100 µM (inactive).

— ChEMBL document CHEMBL1201862, “PubChem BioAssay data set” (2004)
